Results on two compounds are retold here after patent US20110021631A1, “Method of preparing stabilized pharmaceutical compositions comprising active ingredients susceptible to conversion to alternate polymorph forms” (LEK PHARMACEUTICALS D.D., priority 2004, published 2011).

Entries after “also recorded” stand apart in the source; their conditions may differ.

For data set [1] the following is noted: forms as named in WO 01/43723; cited from earlier work.
Data set [2] can be described thus: Polymorph analysis by X-ray powder diffraction (XRPD) after wet granulation / mixing of pravastatin sodium form LEK. In kind it is physicochemical. The protocol: References to 2Θ values are to those measured using CuKα radiation. Samples are measured on apparatus Siemens D-5000 by reflex technique at two conditions: • a. Samples with high amount of pravastatin sodium (more than 30%): CuKα radiation, range from 2° to 37° 2Θ, step 0.04° 2Θ, integration time 1 second, slots V20 and 0.6 mm. • b. Samples with low amount of pravastatin sodium (less than 30%): CuKα radiation, range from 3° to 12° 2Θ, step 0.04° 2Θ, integration time 15 second, slots V20 and 0.6 mm.

Turning to `CC[C@H](C)C(=O)O[C@H]1C[C@H](O)C=C2C=C[C@H](C)[C@H](CC[C@@H](O)C[C@@H](O)CC(=O)O)[C@H]21` [pravastatin sodium form D, pravastatin sodium], in data set [1], the “polymorph conversion by treating with alcohol” value is given as “convert to forms A, H, H1, I, J, K”.
Regarding `CC[C@H](C)C(=O)O[C@H]1C[C@H](O)C=C2C=C[C@H](C)[C@H](CC[C@@H](O)C[C@@H](O)CC(=O)O)[C@H]21` [pravastatin sodium], the “conversion on granulation with granulating liquid comprising a binder (PVP)” value in data set [2] (PVP in ethanol, in some experiments) is “partial conversion”. The “conversion to another polymorph form on granulation with alcohol alone” value in data set [2] (alcohol (absolute ethanol or aqueous ethanol) as granulating liquid, absence of other ingredients) is “does not convert to any other polymorph form; also recorded: does not cause the precrystallization”. Besides, in data set [2] (dry mixture of pravastatin sodium and microcrystalline cellulose, 2 hours at 60° C.), the “precrystallization of dry mixture” value is “does not cause any precrystallization”. In data set [2] (mass ratio pravastatin sodium to microcrystalline cellulose higher or equal to 1:1 and pravastatin sodium to ethanol higher or equal to 1:1, preferably 1:0.5), the “stability of Lek form in wet granulation” value was “stable”. In data set [2] (pravastatin sodium:microcrystalline cellulose = 1:0.5, pravastatin sodium and ethanol 1:0.4), the “precrystallization in wet granulation” value was “no precrystallization occurs”. Moreover, the “polymorph form in the presence of a high amount of microcrystalline cellulose and granulating liquid” value in data set [2] (wet granulation with ethanol) was “precrystallizes to form D”.
